Results published in patent US10151975B2, “Lithographic printing plate precursor” (AGFA NV, priority 2013, dated 2018).

Assay: Solubility of the compounds: visual homogeneity of mixture in aqueous buffer pH 7
Assay type: physicochemical
Design: key to Visual homogeneity After 1 hour / Visual homogeneity After 1 day / Visual homogeneity After 4 days / Visual homogeneity After 1 week / Visual homogeneity After 2 weeks: −: heterogeneous mixture; +: homogeneous mixture
Settings: for Visual homogeneity After 1 week / Visual homogeneity After 2 weeks / Visual homogeneity After 1 hour / Visual homogeneity After 1 day / Visual homogeneity After 4 days: 100 mg compound in 5 ml aqueous buffer pH = 7, room temperature; for Time after which the mixture becomes homogeneous: 100 mg compound in 5 ml aqueous buffer pH = 7
Procedure: Solubility of the Compounds
100 mg of the inventive and comparative compounds were added to 5 ml of a CertiPUR pH=7 buffer solution available from Merck. The mixture was gently stirred at room temperature and the homogeneity of the mixture was evaluated visually after different times: […]

| SMILES | Visual homogeneity After 1 week | Visual homogeneity After 2 weeks | Visual homogeneity After 1 hour | Visual homogeneity After 1 day | Visual homogeneity After 4 days | Time after which the mixture becomes homogeneous |
| --- | --- | --- | --- | --- | --- | --- |
| C=CC(=O)OCCn1c(=O)n(CCOC(=O)C=C)c(=O)n(CCOC(=O)C=C)c1=O [Compound M-6] | − | − | − | − | − |  |
| C=C(C)C(=O)OCCOC(=O)C(=O)OCCOC(=O)C(=C)C [Compound M-1] | + | + | − | − | − | 1 week |
| C=C(C)C(=O)OCCOC(=O)NCCC(C)CC(C)(C)CNC(=O)OCCOC(=O)C(=C)C (centres unmarked) [Compound M-5] | − | − | − | − | − |  |
| C=C(C)C(=O)OCCCNC(=O)C(=O)NCCCOC(=O)C(=C)C [Compound M-4] | − | − | − | − | − |  |
| C=CC(=O)NCCOC(=O)C(=O)OCCNC(=O)C=C [Compound M-3] | + | + | − | + | + | 1 days |
| C=CC(=O)OCCCCOC(=C)C(=O)OCCCCOC(=O)C=C [Compound M-2] | + | + | − | − | − | 1 week |
| C=CC(=O)OCCOCCOc1ccc(C(C)(C)c2ccc(OCCOC(=O)C=C)cc2)cc1 [Compound M-7] | − | − | − | − | − |  |
